Values of other authors in patent US20250387524A1, “METHOD AND SYSTEM FOR THE PRODUCTION OF DISINFECTION AND/OR STERILISATION SOLUTIONS” (UNIVERSITAT JAUME I, priority 2022, published 2025).

Settings: EU-US approved

| Structure (SMILES) | Minimum biocidal concentration [%] |
| --- | --- |
| O=CCCCC=O [Glutaraldehyde] | ≥2 |
| O=Cc1ccccc1C=O [Orto-phtalaldehyde] | 0.55 |
